Source: patent US10925914B2, “Method for alleviating depression using a health functional food containing Vaccinium bracteatum Thunb fruit extract” (priority 2016, dated 2021)
Where a name gives a salt, the structure may show the parent alone.

Experiments:
[1] = test system: SH-SY5Y cells (neuroblastoma, human dopaminergic neuronal cells); settings: 24 h
Experimental: SH-SY5Y cells (neuroblastoma, human dopaminergic neuronal cells) were incubated in MEM medium containing 1% antimycotics/antibiotics and 10% FBS. The cells were seeded at a density of 10^5 cell/ […] in a 96-well plate, and then incubated for 24 hours.
The cell line used was SH-SY5Y cells, and the cells were treated with the Vaccinium bracteatum Thunb. fruit hot-water extract at concentrations of 1, 3, 10, 30, and 100 μg/ml to investigate cytotoxicity.
(§1) After 24 hours, cell viability was determined using an MTT assay.
as §1

ICR male mice = test: Forced swimming test after 6-day oral administration; type: in vivo; settings: comparison group, 6 days
Experimental: The ICR male mice were orally administered with the Vaccinium bracteatum Thunb. fruit extract of the present invention. For a comparative group, escitalopram oxalate used an anti-depressant was orally administered. These were administered for 6 days according to the test. Before drug administration, for the pre-test (pre-swim), tap water around 25° C. was poured into a cylindrical water tank (20 cm in diameter, 40 cm in height) from the bottom of the cylinder to 15 cm, and then the mice were put into the water tank, forced to swim for 15 minutes, taken out from the water, wiped with a dry towel, and then returned to breeding boxes. After 6 days of drug administration, the present test (post-swim) was carried out. […] The recorded image was analyzed excluding the first minute therefrom, and animal behavior during the last 5 minutes was classified into 3 types: immobility behavior (the mouse only floated near the surface of the water, slightly moving while only a part of the upper body including the face was above water), swimming behavior (the mouse moved horizontally around the cylinder moving the front and hind legs in a swimming motion), and climbing behavior (the mouse scratched the wall, somewhat violently kicking the front extremities to move remain above water). The duration of each behavior type was measured.

corticosterone (COR) = test: Plasma corticosterone (COR) by ELISA after 6-day administration; type: in vivo, mice; settings: escitalopram oxalate 10 mg/kg, 6 days; no significance
Experimental: The effects on concentration changes of the neurotransmitter NE associated with depression and the stress hormone COR in normal conditions were measured by isolating plasma from the mice after 6 day-administration of each drug and using the Abnova ELISA kit according to the instruction of the manufacturer.

## C[C@]12C[C@H](O)[C@H]3[C@@H](CCC4=CC(=O)CC[C@@]43C)[C@@H]1CC[C@@H]2C(=O)CO [corticosterone]
[1]; 1 mM
  cytotoxicity: 50-60%

## CN(C)CCC[C@@]1(c2ccc(F)cc2)OCc2cc(C#N)ccc21 [escitalopram oxalate]
ICR male mice; control 51.82±3.38 seconds
  swimming time: 128.16 ± 6.65 s
ICR male mice; last 5 min of 6 min swim, control 245.48±4.05 seconds
  immobility time: 169.65 ± 7.15 s
Corticosterone (COR)
  level of the stress hormone corticosterone compared with the control group: decrease tendency

## OO [H2O2, hydrogen peroxide]
[1]; 10 μM
  cell viability: 50-60%
